According to PubChem BioAssay (NCI):
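Following 48 hours of exposure in 96-well plates, responses at five concentrations were used to interpolate endpoints linearly. Here, GI50 denotes the concentration required for 50% inhibition of growth. TGI: total growth inhibition.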 Where a SMILES comes first, the peptide text is derived from it. [ ]: non-standard residue; d: D form. Phe(4-Cl) = N[CH](Cc1ccc(Cl)cc1)C(=O)O

What was measured:
Experiment in all cases: inhibition of tumour cell growth, NCI panel, 48 h
SK-MEL-2 melanoma = test system: SK-MEL-2 melanoma
UACC-257 melanoma = test system: UACC-257 melanoma
786-0 renal = test system: 786-0 renal
M14 melanoma = test system: M14 melanoma
A498 renal = test system: A498 renal
MCF7 breast = test system: MCF7 breast
T-47D breast = test system: T-47D breast
SW-620 colon = test system: SW-620 colon
HL-60(TB) leukemia = test system: HL-60(TB) leukemia
LOX IMVI melanoma = test system: LOX IMVI melanoma

| Structure (SMILES) | TGI (SK-MEL-2 melanoma) | TGI (UACC-257 melanoma) | TGI (786-0 renal) | TGI (M14 melanoma) | TGI (A498 renal) | TGI (MCF7 breast) | TGI (T-47D breast) | TGI (SW-620 colon) | TGI (HL-60(TB) leukemia) | GI50 (SK-MEL-2 melanoma) | GI50 (786-0 renal) | GI50 (M14 melanoma) | GI50 (HL-60(TB) leukemia) | GI50 (LOX IMVI melanoma) | TGI (LOX IMVI melanoma) | GI50 (SW-620 colon) | GI50 (MCF7 breast) | GI50 (T-47D breast) | GI50 (UACC-257 melanoma) | GI50 (A498 renal) |
| --- | --- | --- | --- | --- | --- | --- | --- | --- | --- | --- | --- | --- | --- | --- | --- | --- | --- | --- | --- | --- |
| O=C1NC(=O)c2ccc([N+](=O)[O-])c3cccc1c23 | 84.1 µM | 33.1 µM | 27 µM | 28.4 µM | 29.1 µM | 27.9 µM | 44 µM | 25.7 µM |  |  |  |  |  |  |  |  |  |  |  |  |
| Nc1ccc(/C=C/c2ccnc3ccccc23)cc1 | 37.6 µM | 57.8 µM | 57.6 µM | 51.5 µM |  |  |  | 97.7 µM | 23.8 µM |  |  |  |  |  |  |  |  |  |  |  |
| CC(=O)[CH-]C(=O)c1ccccc1.CC(=O)[CH-]C(=O)c1ccccc1.O=C([O-])c1ccc([O-])cc1.O=C([O-])c1ccc([O-])cc1.[Ti+4] | > 100 µM |  | > 100 µM | > 100 µM |  |  |  | > 100 µM | 67.6 µM | 36.9 µM | 54.4 µM | 40.2 µM | 20.5 µM | 28.9 µM | > 100 µM | 43 µM |  |  |  |  |
| C[N+](C)(C)CC1CCCC(C[N+](C)(C)C)C1=O (stereo not given) | 3.29 µM | 1.48 µM | 2.38 µM | 2.37 µM | 20.2 µM |  | 3.33 µM |  | 2.22 µM |  |  |  |  |  | 3.09 µM |  |  |  |  |  |
| CCCCCCCCCCCCCC1CCC(CC)N1 (stereo not given) | 36.4 µM | 40.6 µM | 31.5 µM | 31.8 µM | 36.7 µM |  |  | 29.6 µM | 21.2 µM |  |  |  |  |  | 32 µM |  |  |  |  |  |
| CC(C)(C)OC(=O)Cc1ccc2c(ccn2Cc2ccccc2)c1 | > 100 µM | > 100 µM | > 100 µM | > 100 µM | > 100 µM |  |  | > 100 µM | > 100 µM |  |  |  |  |  | > 100 µM |  |  |  |  |  |
| NC(N)=NCCCn1c2c(c3ccccc3c1=O)C(=O)c1ccccc1-2 | 33.6 µM |  | 3.29 µM | 34.5 µM |  | 25.1 µM | 66.6 µM | 31 µM | 81.3 µM | 19.5 µM | 0.681 µM | 18.7 µM | 23.9 µM | 14.4 µM | 28.8 µM | 14.5 µM | 7.27 µM | 22.9 µM |  |  |
| CC(C)N(C(=O)C12CC3CC(CC(C3)C1)C2)C(C)C | > 50 µM | > 50 µM | > 50 µM | > 50 µM | > 50 µM |  |  | > 50 µM | > 50 µM |  |  |  |  |  | > 50 µM |  |  |  |  |  |
| CC1(C)C2CC(O)C1(C)CC2=O (stereo not given) |  | > 100 µM | > 100 µM | > 100 µM |  | > 100 µM | > 100 µM | > 100 µM | > 100 µM |  |  |  |  |  | > 100 µM |  |  |  |  |  |
| CC[O-].CC[O-].O=C1c2ccccc2C(=O)c2c(O)ccc([O-])c21.O=C1c2ccccc2C(=O)c2c(O)ccc([O-])c21.[Ti+4] | > 100 µM | > 100 µM | > 100 µM | > 100 µM | > 100 µM |  |  | > 100 µM | > 100 µM |  |  |  |  |  | > 100 µM |  |  |  |  |  |
| O=C(CCl)Nc1ccc(Cl)cc1 | 6.16 µM | 27.1 µM | 19.5 µM | 17 µM | 22.4 µM | 4.54 µM | 15.6 µM | 11.2 µM |  | 2.51 µM | 4.64 µM | 4.45 µM |  | 1.56 µM | 4.23 µM | 3.45 µM | 1.78 µM | 3.8 µM | 10.4 µM | 10.4 µM |
| O=S(=O)(/N=S(/Nc1ccccc1)C(Cl)Cl)c1ccccc1 (stereo not given) | > 100 µM | > 100 µM | > 100 µM | > 100 µM |  | > 100 µM | > 100 µM | > 100 µM | > 100 µM |  |  |  |  |  | > 100 µM |  |  |  |  |  |
| N#Cc1nc(C2OC(COC(=O)c3ccccc3)C(OC(=O)c3ccccc3)C2OC(=O)c2ccccc2)oc1N (stereo not given) | 93.7 µM | > 100 µM | > 100 µM | > 100 µM | > 100 µM |  |  | > 100 µM | 36.3 µM |  |  |  |  |  | > 100 µM |  |  |  |  |  |
| COc1ccc(N2C(=O)C3c4[nH]c5ccc(C)cc5c4C4CCC(C(C)(C)C)CC4C3C2=O)cc1 (stereo not given) |  | 77.8 µM | 48.7 µM | 34.3 µM |  | > 100 µM | > 100 µM | 69.8 µM | > 100 µM |  |  |  |  |  |  |  |  |  |  |  |
| CC(O)C(NC(=O)C(Cc1ccccc1)NC(=O)C(NC(=O)C(CCCCN)NC(=O)C(Cc1c[nH]c2ccccc12)NC(=O)C(Cc1ccc(O)cc1)NC(=O)C(Cc1ccc(Cl)cc1)NC(=O)C(N)Cc1ccccc1)C(C)O)C(N)=O (stereo not given) (H-F[Phe(4-Cl)]YWKTFT-NH2; configuration not given here) | 39.3 µM |  | 41.3 µM | 47.1 µM | 34 µM |  |  |  | 28.6 µM |  |  |  |  |  |  |  |  |  |  |  |
| O=C(O)CN(c1ccccc1)S(=O)(=O)c1ccccc1[N+](=O)[O-] | > 100 µM | > 100 µM | > 100 µM | > 100 µM | > 100 µM |  |  | > 100 µM | > 100 µM |  |  |  |  |  | > 100 µM |  |  |  |  |  |
| Cc1ccc(S(=O)(=O)n2c(-c3ccccc3)c(-c3ccccc3)c3ccccc32)cc1 | > 100 µM | > 100 µM | > 100 µM | > 100 µM |  |  |  | > 100 µM | > 100 µM |  |  |  |  |  | > 100 µM |  |  |  |  |  |
| COc1ccc2c(c1)CCC1C3(CCCC21C)OCCO3 (stereo not given) | 23.5 µM | 62.1 µM | 38.1 µM | 36.3 µM | 82.6 µM |  |  | 96.2 µM | 43.2 µM |  |  |  |  |  | 30.4 µM |  |  |  |  |  |
| COc1ccc(C(=O)c2cc(C)c(OC)c(C)c2)c(OC)c1N(C(=O)C(Cl)Cl)C(=O)C(Cl)Cl | > 100 µM | > 100 µM | > 100 µM | > 100 µM | 0.0736 µM | > 100 µM |  | > 100 µM | 0.0956 µM | 0.0669 µM | 0.0455 µM | 0.0338 µM | 0.0306 µM | 0.159 µM | > 100 µM | 0.0426 µM | 0.0811 µM |  | > 69.4 µM | < 0.0156 µM |
| Cc1ccc(N(C(=O)CC(=O)NN)C(=O)c2ccccc2Cl)cc1 |  | > 100 µM | > 100 µM | > 100 µM | > 100 µM |  |  | > 100 µM | > 100 µM |  |  |  |  |  | > 100 µM |  |  |  |  |  |
| Cc1cc(C)nc(NS(=O)(=O)c2ccc(Nc3c4ccccc4nc4c(C(=O)Nc5ccc(S(=O)(=O)Nc6cc(C)on6)cc5)cccc34)cc2)n1 |  | 66.6 µM | 34.8 µM | 41.7 µM | 51.5 µM |  |  | 51.4 µM | 61.4 µM |  |  |  |  |  | 37.1 µM |  |  |  |  |  |
| Cc1ccc(Nc2nc3c(s2)C(=O)c2ccccc2C3=O)c(C)c1 | 28.2 µM | 22.8 µM | 32.5 µM | 28.9 µM | > 100 µM |  |  | 43.5 µM | 6.02 µM |  |  |  |  |  | 35.4 µM |  |  |  |  |  |
